Here are results for 38 molecules from ChEMBL document CHEMBL1130038, “1,2-Diarylpyrroles as potent and selective inhibitors of cyclooxygenase-2” (J Med Chem, 1997).

Broadly, the IC50 is the concentration that gives 50% inhibition.

The target in assay [1] is T1, Prostaglandin G/H synthase 1 (Homo sapiens, UniProt P23219).
Description: In vitro inhibitory activity against human prostaglandin G/H synthase 1
Assay [2] is filed under the species Rattus norvegicus. The experiment in a line: animal or person. The note with it: po, read-out: Inhibition.
The species named for assay [3] is Rattus norvegicus. The experiment in a line: animal or person. The note with it: po, read-out: Inhibition. The source holds these as a separate data set.
Assay [4] concerns the target T2, Prostaglandin G/H synthase 2 (Homo sapiens, UniProt P35354).
T2 sequence (P35354 whole entry): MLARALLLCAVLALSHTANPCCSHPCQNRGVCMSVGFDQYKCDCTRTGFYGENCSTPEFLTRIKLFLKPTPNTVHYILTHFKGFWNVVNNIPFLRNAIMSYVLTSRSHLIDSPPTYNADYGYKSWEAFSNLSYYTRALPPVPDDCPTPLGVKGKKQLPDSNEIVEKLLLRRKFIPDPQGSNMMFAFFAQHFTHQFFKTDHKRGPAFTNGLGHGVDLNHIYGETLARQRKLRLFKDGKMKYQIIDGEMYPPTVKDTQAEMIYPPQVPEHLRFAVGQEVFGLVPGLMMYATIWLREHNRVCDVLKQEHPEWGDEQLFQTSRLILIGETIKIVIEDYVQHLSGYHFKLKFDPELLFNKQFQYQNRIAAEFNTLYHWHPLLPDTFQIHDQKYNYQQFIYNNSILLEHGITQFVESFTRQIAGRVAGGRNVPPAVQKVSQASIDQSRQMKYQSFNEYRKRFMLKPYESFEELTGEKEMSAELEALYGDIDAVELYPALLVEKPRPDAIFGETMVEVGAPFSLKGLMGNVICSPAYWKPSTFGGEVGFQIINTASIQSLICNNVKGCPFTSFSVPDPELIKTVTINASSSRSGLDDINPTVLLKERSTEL
Description: In vitro inhibitory activity against human Prostaglandin G/H synthase 2; NA indicates inactive

Assay [5] addresses T1, Prostaglandin G/H synthase 1. This is another data set of the same source.
Description: In vitro inhibitory activity against human Prostaglandin G/H synthase 1; NA indicates inactive
Assay [6] addresses T2, Prostaglandin G/H synthase 2. This is another data set of the same source.
Assay [7] deals with T1, Prostaglandin G/H synthase 1. This is another data set of the same source.
The target is the same in assay [8]. It counts as functional, cell-based, HL-60.
Description: In vitro inhibitory activity against Prostaglandin G/H synthase 1 in retinoic acid stimulated HL-60 cells
The species entered for assay [9] is Homo sapiens. In words: tissue or blood.
Assay [10] is filed under the species Homo sapiens. The experiment in a line: tissue or blood. This is another data set of the same source.
Description: Ability to inhibit LPS-induced PGE-2 production in human whole blood
The species named for assay [11] is Homo sapiens. The experiment in a line: tissue or blood. This is another data set of the same source.
Description: Inhibition of LPS-induced PGE-2 production in the human whole blood.
The species entered for assay [12] is Homo sapiens. In words: tissue or blood. The source holds these as a separate data set.
Description: Inhibition of TXB2 production in the human whole blood.

Where only a bound is given, the exact number is not on record here.

T1 sequence (P23219 whole entry): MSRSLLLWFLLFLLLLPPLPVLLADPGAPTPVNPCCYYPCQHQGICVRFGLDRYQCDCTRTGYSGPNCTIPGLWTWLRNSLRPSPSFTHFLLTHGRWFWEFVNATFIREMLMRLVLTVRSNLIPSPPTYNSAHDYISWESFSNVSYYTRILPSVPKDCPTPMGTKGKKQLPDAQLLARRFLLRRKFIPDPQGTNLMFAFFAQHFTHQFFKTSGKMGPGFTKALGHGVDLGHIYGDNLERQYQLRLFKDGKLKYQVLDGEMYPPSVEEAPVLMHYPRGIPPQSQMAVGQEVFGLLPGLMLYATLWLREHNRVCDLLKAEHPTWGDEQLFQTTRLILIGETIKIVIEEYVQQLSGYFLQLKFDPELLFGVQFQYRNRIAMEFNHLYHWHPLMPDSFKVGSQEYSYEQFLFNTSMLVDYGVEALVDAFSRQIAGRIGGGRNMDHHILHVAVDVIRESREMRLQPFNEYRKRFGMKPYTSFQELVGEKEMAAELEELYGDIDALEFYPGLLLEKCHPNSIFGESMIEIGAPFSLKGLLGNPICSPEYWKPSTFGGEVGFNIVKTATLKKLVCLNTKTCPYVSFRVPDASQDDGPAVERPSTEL

`Cc1ccc(-c2ccc(S(C)(=O)=O)cc2)n1Cc1ccc(F)cc1` returned an IC50 in [1] greater than 100 µM.
Same read-out and setting: the figure for `Cc1ccc(-c2ccc(F)cc2)n1-c1ccc(S(C)(=O)=O)cc1` is greater than 100 µM.
`Cc1ccc(-c2ccc(S(C)(=O)=O)cc2)n1-c1ccc(C(F)(F)F)cc1`: the inhibition in vivo at 10 mg/kg in the assay listed under Rattus norvegicus [2] came out at 31%.
On to `O=S(=O)(c1ccccc1)c1ccc(-n2cccc2-c2ccc(F)cc2)cc1`, for which the half-maximal inhibitory concentration (IC50) in [1] is greater than 100 µM.
In the case of `Cc1ccc(-c2ccc(S(C)(=O)=O)cc2)n1-c1ccc(F)c(F)c1`, in the assay listed under Rattus norvegicus [2], the inhibition in vivo at 10 mg/kg came to 17%.
In turn, `CCc1ccc(-c2ccc(S(C)(=O)=O)cc2)n1-c1ccc(F)cc1` returned an IC50 in assay [1] greater than 100 µM.
Still for that read-out and setting: the figure for `CS(=O)(=O)c1cccc(-n2cccc2-c2ccc(F)cc2)c1` is greater than 100 µM.
Regarding `Cc1c(S(=O)(=O)C(F)(F)F)cc(-c2ccc(S(C)(=O)=O)cc2)n1-c1ccc(F)cc1`, the IC50 in assay [1] is greater than 100 µM. Moreover, the inhibition in vivo at 20 mg/kg in the assay listed under Rattus norvegicus [3] stood at 30%.
In assay [1], `CCCCn1c(C)ccc1-c1ccc(S(C)(=O)=O)cc1` showed an IC50 greater than 100 µM. Besides, in the assay listed under Rattus norvegicus [2], the inhibition in vivo at 10 mg/kg is 1%.
Take `CNS(=O)(=O)c1ccc(-n2cccc2-c2ccc(F)cc2)cc1`: in [1], the IC50 was greater than 100 µM.
For `Cc1c(Br)cc(-c2ccc(S(C)(=O)=O)cc2)n1-c1ccc(F)cc1`, the inhibition in vivo at 10 mg/kg in the assay listed under Rattus norvegicus [2] was 34%.
In assay [1], `CS(=O)(=O)c1ccc(-n2cccc2-c2ccc(F)cc2)cc1Cl` had an IC50 greater than 100 µM.
In turn, `Cc1ccc(-c2ccc(S(C)(=O)=O)cc2)n1-c1ccc(F)cc1` returned an IC50 in [1] greater than 100 µM. Moreover, the inhibition in vivo at 10 mg/kg in the assay filed under Rattus norvegicus [2] came out at 25%.
Take `NS(=O)(=O)c1ccc(-n2cccc2-c2ccc(F)cc2)cc1`: in the assay listed under Rattus norvegicus [2], the inhibition in vivo at 10 mg/kg is 30%.
For the molecule `Cc1ccc(-c2ccc(S(C)(=O)=O)cc2)n1C(C)C`, the IC50 in assay [1] is greater than 100 µM.
Consider `Cc1ccc(-c2ccc(F)cc2)n1-c1ccc([S+](C)[O-])cc1` (stereo not given), for which the IC50 result in [4] and in [5] was “Not Active” throughout.
In [1], `CCS(=O)(=O)c1ccc(-n2cccc2-c2ccc(F)cc2)cc1` showed an IC50 greater than 100 µM.
Same read-out and setting: the figure for `Cc1ccc(-c2ccc(S(C)(=O)=O)cc2)n1C1CCCCC1` is greater than 100 µM; for `Cc1c(COc2ccc(Cl)cc2)cc(-c2ccc(S(C)(=O)=O)cc2)n1-c1ccc(F)cc1` it is greater than 100 µM.
On the same count and under the same terms, the figure for `CS(=O)(=O)c1ccc(-c2cccn2-c2ccc(F)cc2)cc1` is greater than 100 µM.
Turning to `CC(=O)c1ccc(-n2c(C)ccc2-c2ccc(F)cc2)cc1`, the IC50 entry in assay [4] and in [5] was “Not Active” in each case.
Regarding `COc1ccc(-c2ccc(C)n2-c2ccc(C(C)=O)cc2)cc1`, the IC50 entry in assay [4] and in assay [5] was “Not Active” throughout.
`Cc1ccc(-n2c(C)ccc2-c2ccc(S(C)(=O)=O)cc2)cc1`: in the assay listed under Rattus norvegicus [2], the inhibition in vivo at 10 mg/kg is 25%.
Consider `CCN(CC)OC(=O)c1ccc(-n2c(C)ccc2-c2ccc(F)cc2)cc1`, for which the IC50 result in assay [6] and in [7] was “Active” each time.
In the case of `CS(=O)(=O)c1ccc(-n2cccc2-c2ccc(F)cc2)cc1`, in the assay filed under Rattus norvegicus [2], the inhibition in vivo at 10 mg/kg was determined as 42%.
Take `COc1ccc(-c2ccc(CCC(=O)O)n2-c2ccc(C(C)=O)cc2)cc1`: the IC50 was found to be 1 µM in assay [8], 25 µM in [1], 0.3 µM in the assay listed under Homo sapiens [9] and 1.5 µM in the assay filed under Homo sapiens [10].
For `CC(=O)c1cc(-c2ccc(S(C)(=O)=O)cc2)n(-c2ccc(F)cc2)c1C`, the inhibition in vivo at 10 mg/kg in the assay filed under Rattus norvegicus [2] amounted to 13%.
The molecule `Cc1c(C(Oc2cccc(Cl)c2)C(F)(F)F)cc(-c2ccc(S(C)(=O)=O)cc2)n1-c1ccc(F)cc1` (stereo not given) displayed an IC50 in assay [1] greater than 100 µM.
As for `CS(=O)(=O)c1ccc(-c2ccc(CCC(=O)O)n2-c2ccc(F)cc2)cc1`, the IC50 in assay [1] was greater than 100 µM.
Consider `CN(C)S(=O)(=O)c1ccc(-n2c(CCC(=O)O)ccc2-c2ccc(F)cc2)cc1`, for which the IC50 in the assay filed under Homo sapiens [11] was 4.4 µM; in the assay listed under Homo sapiens [12] it was greater than 50 µM.
For `COC(=O)c1ccc(-n2c(C)ccc2-c2ccc(F)cc2)cc1`, the IC50 result in [4] and in [5] was “Not Active” each time.
As for `CS(=O)(=O)c1ccc(-c2ccc(C(F)(F)F)n2-c2ccc(F)cc2)cc1`, the IC50 in assay [1] is greater than 100 µM.
On the same count and under the same terms, the figure for `Cc1c(COc2cccc(Cl)c2)cc(-c2ccc(S(C)(=O)=O)cc2)n1-c1ccc(F)cc1` is greater than 100 µM.
For the molecule `Cc1c(C(O)C(F)(F)F)cc(-c2ccc(S(C)(=O)=O)cc2)n1-c1ccc(F)cc1` (stereo not given), in the assay filed under Rattus norvegicus [3], the inhibition in vivo at 20 mg/kg worked out at 15%.
In the case of `Cc1c(CN(C)C)cc(-c2ccc(S(C)(=O)=O)cc2)n1-c1ccc(F)cc1`, in assay [1], the IC50 is greater than 100 µM.
Same read-out and setting: the figure for `Cc1ccc(-c2ccc(S(C)(=O)=O)cc2)[nH]1` is greater than 100 µM.
With `Cc1ccc(-c2ccc(S(C)(=O)=O)cc2)n1-c1ccccc1`, in the assay filed under Rattus norvegicus [2], the inhibition in vivo at 10 mg/kg amounted to 21%.
The molecule `CN(C)S(=O)(=O)c1ccc(-n2cccc2-c2ccc(F)cc2)cc1` showed an IC50 in assay [1] greater than 100 µM.
